Data published in PMC9019904, “AD Informer Set: Chemical tools to facilitate Alzheimer's disease drug discovery” (Alzheimer's & Dementia : Translational Research & Clinical …, 2022).
Where a SMILES comes first, the peptide text is derived from it. [ ]: non-standard residue; d: D form. The star is where a group is joined. ξ: configuration not given here. ξF = NC(Cc1ccccc1)C(=O)O; Cbz = O=C(OCc1ccccc1)*

What was measured:
[1] = test system: BV2 (mouse microglia) cell line; assay: pHrodo-myelin phagocytosis/cell viability high content imaging assay: viability (cell count, nuclear area, nuclear intensity); details: 48 hours treatment
Outline: (§1)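 BV2 mouse and HMC3 human microglia were treated with compounds at 10 μM for 48 h, with pHrodo-myelin present for the last 20 h. Viability was imaged as total cell count per well and mean nuclear intensity per cell. Values are means of duplicates, normalized to untreated wells as % control.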

[2] = test system: HMC3 (human microglia) cell line; assay: as above; details: 48 hours treatment
Outline: as §1

[3] = test system: BV2 (mouse microglia) cell line; assay: pHrodo-myelin phagocytosis/cell viability high content imaging assay: phagocytosis signal; type: cell-based
Outline: (§2)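 Imaging at high content captured pHrodo-myelin uptake about 22 hours after its addition, alongside a viability read-out from the same cells. Three measurements were derived, with intensity increase marking early apoptosis and decrease marking later apoptosis.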

[4] = test system: HMC3 (human microglia) cell line; assay: as above; type: cell-based
Outline: as §2

[5] = BV2 cells, 10 uM compound, 48 hours treatment, pHrodo-myelin final 20 hours
[6] = HMC3 cells, 10 uM compound, 48 hours treatment, pHrodo-myelin final 20 hours
[7] = BV2, compound 10 uM, pHrodo-myelin
[8] = HMC3, compound 10 uM, pHrodo-myelin

Compound | 1. Cell count (% control) ([1]; BV2 cells, 10 uM compound) | 2. Nuclear Area (% Control) ([1]; BV2 cells, 10 uM compound) | 3. Nuclear DNA Intensity (% control) ([1]; BV2 cells, 10 uM compound) | 1. Cell count (% control) ([2]; HMC3 cells, 10 uM compound) | 2. Nuclear Area (% Control) ([2]; HMC3 cells, 10 uM compound) | 3. Nuclear DNA Intensity (% control) ([2]; HMC3 cells, 10 uM compound) | 4. Phagocytosis (% control) [3, 5] [% control] | 4. Phagocytosis (% control) [4, 6] [% control] | 1. Cell count (% control) ([1]; BV2, compound 10 uM) | 2. Nuclear Area (% Control) ([1]; BV2, compound 10 uM) | 3. Nuclear DNA Intensity (% control) ([1]; BV2, compound 10 uM) | 1. Cell count (% control) ([2]; HMC3, compound 10 uM) | 2. Nuclear Area (% Control) ([2]; HMC3, compound 10 uM) | 3. Nuclear DNA Intensity (% control) ([2]; HMC3, compound 10 uM) | 4. Phagocytosis (% control) [3, 7] [% control] | 4. Phagocytosis (% control) [4, 8] [% control]
CNC(=O)CN1CCC(Oc2cc3c(Nc4cccc(Cl)c4F)ncnc3cc2OC)CC1 [UNC10302865A] | 102.4 | 110.1 | 101.0 | 132.1 | 105.8 | 90.8 | 68.8 | 152.7 | – | – | – | – | – | – | – | –
CCOC(=O)N1CCC(Nc2c(NCCN3CCN(c4cccc(C(F)(F)F)c4)CC3)c(=O)c2=O)CC1 [UNC10302706A] | – | – | – | – | – | – | – | – | 117.8 | 102.0 | 95.9 | 111.8 | 102.2 | 96.9 | 143.2 | 75.0
Cc1cc2c(cc1C1(c3ccc(C(=O)O)cn3)CC1)C(C)(C)CCC2(C)C [UNC10302904A] | 72.5 | 111.9 | 92.6 | 110.6 | 108.2 | 90.0 | 105.9 | 73.6 | – | – | – | – | – | – | – | –
C[C@H](N/C(=N\c1cccc2ncccc12)NC#N)c1ccccc1 [UNC10302855A] | 130.8 | 103.4 | 103.1 | 114.9 | 101.2 | 97.7 | 124.5 | 63.4 | – | – | – | – | – | – | – | –
CNC(=O)[C@H](Cc1c[nH]c2ccccc12)NC(=O)[C@@H](CC(=O)NO)CC(C)C [UNC10302858A] | 101.6 | 102.8 | 98.5 | 86.0 | 95.1 | 101.4 | 100.0 | 82.4 | – | – | – | – | – | – | – | –
OC(c1cc(C23CC4CC(CC(C4)C2)C3)nc2c(Cl)cc(Cl)cc12)C1CCCCN1 (centres unmarked) [UNC10302897A] | 63.8 | 105.3 | 99.1 | 110.1 | 94.7 | 100.9 | 122.3 | 67.0 | – | – | – | – | – | – | – | –
O=c1[nH]c(=O)n([C@H]2C[C@H](O)[C@@H](CO)O2)cc1/C=C/Br [UNC10100235A] | 94.9 | 117.1 | 94.6 | 104.1 | 100.7 | 100.8 | 118.4 | 83.2 | – | – | – | – | – | – | – | –
Cc1ccccc1NC(=O)CN1C(=O)N/C(=C/c2ccccc2OCc2ccc(C(=O)O)cc2)C1=O [UNC10302882A] | 94.9 | 109.5 | 96.5 | 155.5 | 101.8 | 92.5 | 153.2 | 89.7 | – | – | – | – | – | – | – | –
CN1C[C@H](Nc2cnn(C)c(=O)c2Br)C[C@H](c2ccccc2)C1 [UNC10303157A] | – | – | – | – | – | – | – | – | 85.0 | 105.0 | 100.7 | 86.8 | 97.5 | 100.9 | 145.8 | 103.4
Cn1nccc1Nc1nccc(-c2ccn([C@H](CO)c3ccc(Cl)c(F)c3)c(=O)c2)n1 [UNC8131A] | – | – | – | – | – | – | – | – | 15.3 | 134.5 | 44.7 | 54.4 | 77.5 | 167.5 | 0.00107 | 12.1
CN(C)CC[C@H](CSc1ccccc1)Nc1ccc(S(=O)(=O)NC(=O)c2ccc(N3CCN(Cc4ccccc4-c4ccc(Cl)cc4)CC3)cc2)cc1[N+](=O)[O-] [UNC10302898A] | 128.7 | 97.8 | 106.0 | 148.0 | 98.3 | 97.1 | 104.5 | 82.2 | – | – | – | – | – | – | – | –
N#Cc1ccc(COC[C@H]2O[C@@H](n3c(NCc4ccc(Cl)c(Cl)c4)nc4c(N)ncnc43)[C@H](O)[C@@H]2O)cc1 [UNC10302853A] | 54.5 | 107.2 | 111.0 | 92.6 | 103.1 | 98.3 | 176.9 | 88.3 | – | – | – | – | – | – | – | –
CC(=O)O[C@@H]1[C@@H](OC(C)=O)[C@@H](O)[C@H](Oc2c(-c3ccc(O)cc3)oc3cc(O)cc(O)c3c2=O)O[C@H]1C [UNC10303187A] | – | – | – | – | – | – | – | – | 146.1 | 103.4 | 101.7 | 122.3 | 105.1 | 90.5 | 142.1 | 67.9
C[C@]12C=CC(=O)C=C1CC[C@@H]1[C@@H]2[C@@H](O)C[C@@]2(C)[C@H]1CC[C@]2(O)C(=O)CO [UNC10240227A] | 107.8 | 102.9 | 105.7 | 161.9 | 102.8 | 82.5 | 126.6 | 79.4 | – | – | – | – | – | – | – | –
CC1(COc2ccc3c(c2)ncn3-c2ccc3cccc(N4CCC(N)CC4)c3n2)COC1 [UNC10223898A] | – | – | – | – | – | – | – | – | 26.6 | 103.7 | 28.1 | 60.3 | 56.9 | 188.8 | 0.00125 | 0.347
CC(C)[C@H](NC(=O)OCc1ccccc1)C(=O)NC(C=O)Cc1ccccc1 (stereo partly drawn) [UNC10302675A] (Cbz-Val-[ξF]-aldehyde) | 117.2 | 102.4 | 114.8 | 109.7 | 102.5 | 106.2 | 144.5 | 106.9 | – | – | – | – | – | – | – | –
CCOC(=O)N1c2ccc(C(F)(F)F)cc2[C@@H](N(Cc2cc(C(F)(F)F)cc(C(F)(F)F)c2)C(=O)OC)C[C@H]1CC [UNC10302851A] | 124.9 | 104.2 | 100.1 | 125.3 | 99.8 | 94.2 | 135.7 | 85.4 | – | – | – | – | – | – | – | –
CCOC(=O)CS(=O)(=O)c1ccc([C@@H](CO)NC(=O)c2cc3c(Cl)c(Cl)c(C)cc3n2C)cc1 [UNC10302908A] | 28.9 | 117.3 | 97.5 | 71.6 | 75.5 | 156.6 | 249.0 | 53.1 | – | – | – | – | – | – | – | –
COCC(=O)O[C@]1(CCN(C)CCCc2nc3ccccc3[nH]2)CCc2cc(F)ccc2[C@@H]1C(C)C.Cl.Cl [UNC10303193A] | – | – | – | – | – | – | – | – | 0.0 | 78.1 | 3.8 | 77.7 | 77.5 | 143.7 | 0.0 | 9.6
